Test results: ChEMBL document CHEMBL5291721, “A preclinical secondary pharmacology resource illuminates target-adverse drug reaction associations of marketed drugs” (Nat Commun, 2023)

What was measured:
[1] = biological target: 3',5'-cyclic-AMP phosphodiesterase 4A (Homo sapiens, UniProt P27815); assay type: functional
[2] = biological target: Gamma-aminobutyric acid receptor subunit alpha-1 (Rattus norvegicus, UniProt P62813)
[3] = biological target: D(1A) dopamine receptor (Homo sapiens, UniProt P21728); assay type: functional, cell-based
Chain of D(1A) dopamine receptor (P21728 whole entry): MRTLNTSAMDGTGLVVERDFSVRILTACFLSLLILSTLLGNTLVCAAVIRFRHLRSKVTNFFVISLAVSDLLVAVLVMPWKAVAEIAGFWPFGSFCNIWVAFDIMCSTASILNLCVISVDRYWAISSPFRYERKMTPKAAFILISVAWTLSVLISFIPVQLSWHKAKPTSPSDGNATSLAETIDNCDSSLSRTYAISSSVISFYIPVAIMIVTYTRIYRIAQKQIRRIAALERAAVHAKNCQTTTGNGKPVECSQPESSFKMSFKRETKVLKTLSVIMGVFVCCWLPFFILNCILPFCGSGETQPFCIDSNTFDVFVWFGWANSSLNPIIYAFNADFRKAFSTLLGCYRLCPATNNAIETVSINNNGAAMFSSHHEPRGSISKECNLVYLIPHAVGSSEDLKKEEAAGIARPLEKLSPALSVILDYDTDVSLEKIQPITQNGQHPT

[4] = biological target: T1, Alpha-1A adrenergic receptor (Homo sapiens, UniProt P35348); assay type: functional, cell-based
T1 sequence (P35348 whole entry): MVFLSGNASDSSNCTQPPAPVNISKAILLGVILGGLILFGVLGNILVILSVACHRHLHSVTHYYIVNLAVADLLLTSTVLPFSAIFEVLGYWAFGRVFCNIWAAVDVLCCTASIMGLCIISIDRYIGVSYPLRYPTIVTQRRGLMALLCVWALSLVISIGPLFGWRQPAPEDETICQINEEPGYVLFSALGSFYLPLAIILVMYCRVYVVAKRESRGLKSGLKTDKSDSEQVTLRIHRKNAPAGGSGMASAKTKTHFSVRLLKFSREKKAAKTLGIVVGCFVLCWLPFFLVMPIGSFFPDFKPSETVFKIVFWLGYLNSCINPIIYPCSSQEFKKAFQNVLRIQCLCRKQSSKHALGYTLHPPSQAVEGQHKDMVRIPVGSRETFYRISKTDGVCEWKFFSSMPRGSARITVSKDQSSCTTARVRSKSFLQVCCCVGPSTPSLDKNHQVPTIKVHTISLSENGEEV

[5] = biological target: Mu-type opioid receptor (Homo sapiens, UniProt P35372); assay: biochemical; assay type: functional
Chain of Mu-type opioid receptor (P35372 whole entry): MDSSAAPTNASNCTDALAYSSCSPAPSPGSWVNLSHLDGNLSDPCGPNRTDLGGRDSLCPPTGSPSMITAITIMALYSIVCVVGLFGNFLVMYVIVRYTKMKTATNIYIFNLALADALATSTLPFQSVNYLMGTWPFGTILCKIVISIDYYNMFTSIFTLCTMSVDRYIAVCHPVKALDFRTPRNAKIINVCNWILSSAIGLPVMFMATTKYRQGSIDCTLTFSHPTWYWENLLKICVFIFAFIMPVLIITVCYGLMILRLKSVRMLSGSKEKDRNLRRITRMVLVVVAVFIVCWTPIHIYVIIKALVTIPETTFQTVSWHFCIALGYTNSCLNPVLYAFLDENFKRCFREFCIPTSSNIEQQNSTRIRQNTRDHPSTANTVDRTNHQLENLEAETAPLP

[6] = biological target: T2, 5-hydroxytryptamine receptor 1A (Homo sapiens, UniProt P08908)
T2 sequence (P08908 whole entry): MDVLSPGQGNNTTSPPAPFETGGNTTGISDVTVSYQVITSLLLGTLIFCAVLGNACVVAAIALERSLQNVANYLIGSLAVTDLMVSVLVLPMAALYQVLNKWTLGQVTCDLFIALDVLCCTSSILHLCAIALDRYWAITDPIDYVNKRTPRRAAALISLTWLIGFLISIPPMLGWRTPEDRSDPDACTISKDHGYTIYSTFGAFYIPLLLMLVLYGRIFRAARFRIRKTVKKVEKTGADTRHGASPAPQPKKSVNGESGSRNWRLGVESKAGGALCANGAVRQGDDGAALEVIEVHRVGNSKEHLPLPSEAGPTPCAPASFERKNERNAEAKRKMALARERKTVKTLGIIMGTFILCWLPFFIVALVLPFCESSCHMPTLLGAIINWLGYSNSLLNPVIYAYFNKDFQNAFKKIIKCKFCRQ

[7] = biological target: Cannabinoid receptor 1 (Homo sapiens, UniProt P21554)
Chain of Cannabinoid receptor 1 (P21554 whole entry): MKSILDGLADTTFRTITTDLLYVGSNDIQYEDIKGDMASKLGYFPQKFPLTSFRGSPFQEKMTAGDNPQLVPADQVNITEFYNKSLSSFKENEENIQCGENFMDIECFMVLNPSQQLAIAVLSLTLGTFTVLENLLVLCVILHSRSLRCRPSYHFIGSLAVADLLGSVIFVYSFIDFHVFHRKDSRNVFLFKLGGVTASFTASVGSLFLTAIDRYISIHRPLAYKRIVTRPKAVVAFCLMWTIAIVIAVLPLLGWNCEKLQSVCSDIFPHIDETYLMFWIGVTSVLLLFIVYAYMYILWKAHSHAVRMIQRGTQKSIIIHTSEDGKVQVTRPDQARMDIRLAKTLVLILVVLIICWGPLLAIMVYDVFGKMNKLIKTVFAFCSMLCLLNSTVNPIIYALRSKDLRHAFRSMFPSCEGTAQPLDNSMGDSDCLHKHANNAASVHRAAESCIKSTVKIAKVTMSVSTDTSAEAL

[8] = biological target: Vasopressin V1a receptor (Homo sapiens, UniProt P37288)
Chain of Vasopressin V1a receptor (P37288 whole entry): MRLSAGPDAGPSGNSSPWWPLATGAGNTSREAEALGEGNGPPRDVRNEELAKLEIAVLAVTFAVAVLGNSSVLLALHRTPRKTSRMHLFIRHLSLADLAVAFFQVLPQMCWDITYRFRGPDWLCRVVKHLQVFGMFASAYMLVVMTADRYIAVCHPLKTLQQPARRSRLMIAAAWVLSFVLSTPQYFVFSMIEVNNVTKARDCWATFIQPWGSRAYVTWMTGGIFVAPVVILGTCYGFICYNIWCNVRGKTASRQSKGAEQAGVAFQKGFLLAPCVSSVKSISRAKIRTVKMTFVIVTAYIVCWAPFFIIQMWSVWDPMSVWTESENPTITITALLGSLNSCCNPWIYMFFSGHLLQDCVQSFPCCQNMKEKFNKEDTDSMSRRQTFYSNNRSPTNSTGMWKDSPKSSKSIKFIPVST

[9] = biological target: Prothrombin (Homo sapiens, UniProt P00734); assay type: functional
[10] = biological target: Sodium-dependent dopamine transporter (Homo sapiens, UniProt Q01959)
Chain of Sodium-dependent dopamine transporter (Q01959 whole entry): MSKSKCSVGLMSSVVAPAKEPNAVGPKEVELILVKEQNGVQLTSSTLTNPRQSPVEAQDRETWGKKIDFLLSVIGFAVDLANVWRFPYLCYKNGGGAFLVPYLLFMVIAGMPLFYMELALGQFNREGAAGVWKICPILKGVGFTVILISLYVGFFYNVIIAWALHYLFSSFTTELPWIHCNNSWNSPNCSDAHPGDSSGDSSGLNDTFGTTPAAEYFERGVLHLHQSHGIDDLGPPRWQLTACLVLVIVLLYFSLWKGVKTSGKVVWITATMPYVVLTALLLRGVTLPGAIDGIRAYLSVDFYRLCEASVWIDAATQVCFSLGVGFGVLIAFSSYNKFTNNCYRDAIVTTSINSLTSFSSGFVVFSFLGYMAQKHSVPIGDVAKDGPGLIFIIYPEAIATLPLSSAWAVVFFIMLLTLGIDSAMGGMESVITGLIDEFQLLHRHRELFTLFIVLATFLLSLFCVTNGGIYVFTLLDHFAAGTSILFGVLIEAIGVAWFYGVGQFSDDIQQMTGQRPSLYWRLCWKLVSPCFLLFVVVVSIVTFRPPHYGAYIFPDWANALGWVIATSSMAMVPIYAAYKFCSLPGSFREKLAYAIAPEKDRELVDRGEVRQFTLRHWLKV

[11] = biological target: T3, Progesterone receptor (Homo sapiens, UniProt P06401); assay type: functional
T3 sequence (P06401 whole entry): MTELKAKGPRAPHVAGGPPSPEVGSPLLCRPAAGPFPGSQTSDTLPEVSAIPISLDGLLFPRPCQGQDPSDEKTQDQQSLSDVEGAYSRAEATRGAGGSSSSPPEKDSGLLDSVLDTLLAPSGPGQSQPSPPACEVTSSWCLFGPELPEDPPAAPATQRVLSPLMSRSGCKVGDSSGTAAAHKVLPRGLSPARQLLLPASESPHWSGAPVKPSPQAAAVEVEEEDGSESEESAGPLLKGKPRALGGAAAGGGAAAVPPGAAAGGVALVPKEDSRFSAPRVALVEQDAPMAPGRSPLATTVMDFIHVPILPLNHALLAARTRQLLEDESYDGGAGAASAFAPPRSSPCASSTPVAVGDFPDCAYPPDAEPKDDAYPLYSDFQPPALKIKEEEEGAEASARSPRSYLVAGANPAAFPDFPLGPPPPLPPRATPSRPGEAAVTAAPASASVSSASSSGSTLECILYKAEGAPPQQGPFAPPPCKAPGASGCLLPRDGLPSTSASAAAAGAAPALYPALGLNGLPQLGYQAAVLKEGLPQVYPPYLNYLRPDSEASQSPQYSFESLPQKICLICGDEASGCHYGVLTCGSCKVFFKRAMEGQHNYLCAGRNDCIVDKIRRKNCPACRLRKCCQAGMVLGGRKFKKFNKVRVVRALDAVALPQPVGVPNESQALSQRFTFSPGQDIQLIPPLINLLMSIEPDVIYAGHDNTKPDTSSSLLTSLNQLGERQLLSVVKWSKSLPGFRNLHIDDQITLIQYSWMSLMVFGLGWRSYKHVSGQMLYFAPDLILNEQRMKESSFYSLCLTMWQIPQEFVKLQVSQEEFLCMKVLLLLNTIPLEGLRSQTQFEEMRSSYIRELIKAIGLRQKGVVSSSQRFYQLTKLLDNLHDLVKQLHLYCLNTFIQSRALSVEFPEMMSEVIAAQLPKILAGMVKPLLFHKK

[12] = biological target: Muscarinic acetylcholine receptor M3 (Homo sapiens, UniProt P20309)
Chain of Muscarinic acetylcholine receptor M3 (P20309 whole entry): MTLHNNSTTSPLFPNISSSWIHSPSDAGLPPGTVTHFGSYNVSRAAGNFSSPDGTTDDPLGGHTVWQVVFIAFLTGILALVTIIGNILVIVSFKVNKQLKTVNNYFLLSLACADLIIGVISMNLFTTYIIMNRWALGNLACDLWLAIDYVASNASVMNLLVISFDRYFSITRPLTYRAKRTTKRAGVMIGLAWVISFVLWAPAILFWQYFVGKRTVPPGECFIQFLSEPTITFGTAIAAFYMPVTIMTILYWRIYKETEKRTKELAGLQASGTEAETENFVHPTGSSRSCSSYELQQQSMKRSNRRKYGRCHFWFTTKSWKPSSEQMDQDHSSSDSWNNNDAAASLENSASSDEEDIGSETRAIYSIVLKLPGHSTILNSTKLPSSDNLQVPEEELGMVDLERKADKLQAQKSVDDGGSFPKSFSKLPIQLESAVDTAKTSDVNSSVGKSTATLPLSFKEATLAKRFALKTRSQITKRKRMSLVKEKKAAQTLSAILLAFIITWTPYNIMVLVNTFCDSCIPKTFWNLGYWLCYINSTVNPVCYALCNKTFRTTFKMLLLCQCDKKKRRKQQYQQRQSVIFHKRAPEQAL

[13] = biological target: 5-hydroxytryptamine receptor 2A (Homo sapiens, UniProt P28223); assay type: functional, cell-based
Chain of 5-hydroxytryptamine receptor 2A (P28223 whole entry): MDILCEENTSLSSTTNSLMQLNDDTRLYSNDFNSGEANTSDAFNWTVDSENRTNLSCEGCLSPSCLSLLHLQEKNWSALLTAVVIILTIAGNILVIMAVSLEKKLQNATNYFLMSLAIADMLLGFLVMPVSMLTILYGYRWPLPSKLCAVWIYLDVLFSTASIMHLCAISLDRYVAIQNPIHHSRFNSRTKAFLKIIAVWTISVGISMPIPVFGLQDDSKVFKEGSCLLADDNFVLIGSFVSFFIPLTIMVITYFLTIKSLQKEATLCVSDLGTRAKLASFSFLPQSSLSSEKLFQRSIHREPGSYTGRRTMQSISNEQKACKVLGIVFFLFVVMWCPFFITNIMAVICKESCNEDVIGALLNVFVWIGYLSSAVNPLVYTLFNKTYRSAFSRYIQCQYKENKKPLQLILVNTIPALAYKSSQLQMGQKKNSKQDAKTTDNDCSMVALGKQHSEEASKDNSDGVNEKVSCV
Also: assay procedure not described here.

Chain of 3',5'-cyclic-AMP phosphodiesterase 4A (P27815 whole entry): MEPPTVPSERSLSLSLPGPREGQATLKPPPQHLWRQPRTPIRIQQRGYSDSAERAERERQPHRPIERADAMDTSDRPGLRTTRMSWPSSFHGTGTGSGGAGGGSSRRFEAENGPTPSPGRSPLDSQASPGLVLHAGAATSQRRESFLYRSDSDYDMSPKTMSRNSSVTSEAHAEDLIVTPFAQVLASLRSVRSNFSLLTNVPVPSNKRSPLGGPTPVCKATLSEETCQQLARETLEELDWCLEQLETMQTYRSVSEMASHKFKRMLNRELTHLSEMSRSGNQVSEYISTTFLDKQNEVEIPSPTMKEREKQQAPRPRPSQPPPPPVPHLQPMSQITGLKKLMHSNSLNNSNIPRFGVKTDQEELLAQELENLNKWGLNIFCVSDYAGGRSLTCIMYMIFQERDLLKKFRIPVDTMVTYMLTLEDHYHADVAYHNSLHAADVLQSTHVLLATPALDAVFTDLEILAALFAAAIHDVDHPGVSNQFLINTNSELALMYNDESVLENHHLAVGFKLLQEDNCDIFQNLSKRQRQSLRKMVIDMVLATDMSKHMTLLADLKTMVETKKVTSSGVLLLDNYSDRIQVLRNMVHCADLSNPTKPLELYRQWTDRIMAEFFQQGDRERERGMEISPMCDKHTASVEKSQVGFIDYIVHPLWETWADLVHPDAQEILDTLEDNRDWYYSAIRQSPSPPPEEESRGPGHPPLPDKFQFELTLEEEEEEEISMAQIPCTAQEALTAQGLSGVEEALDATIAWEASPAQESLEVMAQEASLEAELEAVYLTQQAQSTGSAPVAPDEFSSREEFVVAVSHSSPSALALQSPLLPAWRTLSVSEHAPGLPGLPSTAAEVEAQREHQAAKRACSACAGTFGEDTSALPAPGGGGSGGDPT
Chain of Gamma-aminobutyric acid receptor subunit alpha-1 (P62813 whole entry): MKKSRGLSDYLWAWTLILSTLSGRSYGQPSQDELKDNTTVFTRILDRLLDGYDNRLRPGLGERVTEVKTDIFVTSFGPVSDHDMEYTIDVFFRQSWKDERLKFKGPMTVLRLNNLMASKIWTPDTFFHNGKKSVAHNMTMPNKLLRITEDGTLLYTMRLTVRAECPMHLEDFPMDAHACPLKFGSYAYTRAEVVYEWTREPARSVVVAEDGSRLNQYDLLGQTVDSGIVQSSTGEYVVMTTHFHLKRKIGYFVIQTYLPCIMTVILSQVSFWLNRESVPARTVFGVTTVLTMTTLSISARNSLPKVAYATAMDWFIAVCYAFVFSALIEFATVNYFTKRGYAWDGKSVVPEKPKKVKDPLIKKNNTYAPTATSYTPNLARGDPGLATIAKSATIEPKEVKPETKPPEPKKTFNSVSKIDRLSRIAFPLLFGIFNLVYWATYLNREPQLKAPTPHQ

SMILES | AC50 [1] | AC50 [2] | AC50 [3] | AC50 [4] | AC50 [5] | AC50 [6] | AC50 [7] | AC50 [8] | AC50 [9] | AC50 [10] | AC50 [11] | AC50 [12] | AC50 [13]
CC(C(=O)O)c1ccc(-c2ccccc2)c(F)c1 (stereo not given) [FLURBIPROFEN] | > 30 µM | > 10 µM | > 10 µM | > 30 µM | > 30 µM | > 30 µM | > 10 µM | > 10 µM | > 30 µM | > 30 µM |  |  | 
Cc1cc2cc3c(C)cc(=O)oc3c(C)c2o1 [TRIOXSALEN] |  | > 10 µM | > 10 µM |  | > 30 µM |  | > 10 µM |  |  |  | > 30 µM |  | 
Clc1ccc2c(N3CCN(CCCN4CCN(c5ccnc6cc(Cl)ccc56)CC4)CC3)ccnc2c1 [PIPERAQUINE] |  | > 30 µM | > 30 µM |  | > 30 µM |  |  | > 30 µM |  |  | > 30 µM | > 30 µM | > 30 µM
O=C(O)c1cn(C2CC2)c2cc(N3CCNCC3)c(F)cc2c1=O [CIPROFLOXACIN] | > 30 µM |  |  |  |  |  |  | > 10 µM | > 30 µM |  |  |  | 
COC(=O)c1ccc(O)cc1 [METHYLPARABEN] | > 30 µM |  |  | > 30 µM |  | > 30 µM |  |  | > 30 µM | > 30 µM |  |  | 
Cc1ccccc1N1CCN(CCc2nnc3n2CCCC3)CC1 [DAPIPRAZOLE] | > 30 µM |  |  |  |  | 0.628 µM |  |  | > 30 µM | > 30 µM |  |  | 
COc1cc(N)c(Cl)cc1C(=O)NC1CCN(Cc2ccccc2)CC1 [CLEBOPRIDE] |  | > 30 µM |  |  | > 30 µM |  |  | > 30 µM |  |  | > 30 µM | > 30 µM | > 30 µM
COc1ccc(CN(CCN(C)C)c2ccccn2)cc1 [PYRILAMINE] | > 30 µM |  |  | > 30 µM |  | 26.4 µM |  |  | > 30 µM | 2.41 µM |  |  | 
Cc1cccc(N2CC(CO)OC2=O)c1 (stereo not given) [TOLOXATONE] |  | > 30 µM | > 30 µM |  | > 30 µM |  |  | > 30 µM |  |  | > 30 µM | > 30 µM | > 30 µM
C=C1CC[C@H](O)C/C1=C/C=C1\CCC[C@]2(C)[C@@H]([C@H](C)/C=C/[C@H](C)C(C)C)CC[C@@H]12 [ERGOCALCIFEROL] | > 30 µM |  |  |  |  | > 30 µM |  |  | > 30 µM | > 30 µM |  |  | 
COCC1=C(C(=O)O)N2C(=O)[C@@H](NC(=O)/C(=N\OC)c3csc(N)n3)[C@H]2SC1 [CEFPODOXIME] |  | > 30 µM | > 30 µM |  | > 30 µM |  |  | > 30 µM |  |  | > 30 µM | > 30 µM | > 30 µM
CNCc1ccc(-c2[nH]c3cc(F)cc4c3c2CCNC4=O)cc1 [RUCAPARIB] |  |  |  |  |  |  |  | > 30 µM |  |  |  |  | > 10 µM
Cc1c(N(C)CS(=O)(=O)O)c(=O)n(-c2ccccc2)n1C [METAMIZOLE] | > 30 µM |  |  | > 30 µM |  | > 30 µM |  |  | > 30 µM | > 30 µM |  |  | 
Cc1cnc(C(=O)NCCc2ccc(S(=O)(=O)NC(=O)NC3CCCCC3)cc2)cn1 [GLIPIZIDE] | > 30 µM |  |  | > 3 µM |  | 29.9 µM |  | > 10 µM | > 30 µM |  |  |  | 
CC(C)NCC(O)c1ccc(O)c(O)c1 (stereo not given) [ISOPROTERENOL] |  | > 10 µM | > 30 µM |  |  |  | > 10 µM | > 10 µM |  |  | > 30 µM |  | 
